Data from publication PMC2939961 (Journal of neurochemistry, 2010).
Counter-ions that a name gives are not always drawn.

Tests used:
[1] = target: T1, Ostα-Ostβ (organic solute transporter, Ostα subunit) (Mus musculus, UniProt Q80WK2+Q8R000); details: read-out: % inhibition at 500 μM
T1 sequence (Q8R000 1-340): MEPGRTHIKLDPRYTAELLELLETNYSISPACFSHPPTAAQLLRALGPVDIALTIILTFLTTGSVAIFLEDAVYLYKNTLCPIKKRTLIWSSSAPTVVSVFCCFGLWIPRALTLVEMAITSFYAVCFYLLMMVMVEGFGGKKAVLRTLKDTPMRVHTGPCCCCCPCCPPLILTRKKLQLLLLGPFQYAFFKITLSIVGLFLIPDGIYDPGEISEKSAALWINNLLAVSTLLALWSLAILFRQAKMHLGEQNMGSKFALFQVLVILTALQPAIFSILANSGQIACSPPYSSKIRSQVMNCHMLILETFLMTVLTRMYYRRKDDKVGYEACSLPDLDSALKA
T1 sequence (Q80WK2 1-128): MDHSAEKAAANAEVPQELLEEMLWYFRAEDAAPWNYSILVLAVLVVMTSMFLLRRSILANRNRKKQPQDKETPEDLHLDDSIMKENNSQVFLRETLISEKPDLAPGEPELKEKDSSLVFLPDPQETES

[2] = target: T2, OSTα-OSTβ (organic solute transporter, OSTα subunit) (Homo sapiens, UniProt Q86UW1+Q86UW2); details: read-out: % inhibition at 500 μM
T2 sequence (Q86UW1 1-340): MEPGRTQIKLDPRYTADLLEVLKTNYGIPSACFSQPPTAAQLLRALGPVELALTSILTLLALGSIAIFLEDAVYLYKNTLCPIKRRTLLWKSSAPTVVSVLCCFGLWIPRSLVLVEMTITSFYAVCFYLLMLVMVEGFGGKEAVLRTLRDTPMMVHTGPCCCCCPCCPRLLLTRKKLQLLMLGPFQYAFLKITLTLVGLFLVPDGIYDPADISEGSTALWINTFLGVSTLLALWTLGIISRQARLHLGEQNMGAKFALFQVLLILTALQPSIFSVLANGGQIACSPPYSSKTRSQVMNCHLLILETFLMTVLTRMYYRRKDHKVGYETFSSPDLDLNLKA
T2 sequence (Q86UW2 1-128): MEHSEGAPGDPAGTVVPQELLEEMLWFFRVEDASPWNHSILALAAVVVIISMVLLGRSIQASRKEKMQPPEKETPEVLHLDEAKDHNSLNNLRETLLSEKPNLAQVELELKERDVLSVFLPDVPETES

SMILES	inhibition at 500 µM [1] [%]	inhibition at 500 µM [2] [%]
C[C@]12CC[C@@H](OS(=O)(=O)O)C[C@@H]1CC[C@@H]1[C@@H]2CC[C@]2(C)C(=O)CC[C@@H]12 [Androsterone sulfate]	~65	~65
CC(=O)[C@H]1CC[C@H]2[C@@H]3CC=C4C[C@@H](OS(=O)(=O)O)CC[C@]4(C)[C@H]3CC[C@]12C [PREGS, pregnenolone sulfate]	~65	–
